Numbered stars: 1 amine (or outer) side, 2 acyl side, 3 side chain; on linkers, the order of the positions; unused ones are H or OH. Square brackets hold non-standard residues; d marks the D form. Peptide text beside a SMILES is read from it. X1 = O=C(C[C@@H]1O[C@H](CN[*:1])[C@@H](O)[C@H]1O)[*:2]
Experiments:
Integrin alpha-V/beta-3 [1] = molecular target: T1, Integrin alpha-V/beta-3 (Homo sapiens, UniProt P05106+P06756); experiment: Displacement of [125I]echistatin from alphaV-beta3 integrin of human skin fibroblasts; type: protein-complex assay
[2] = molecular target: T2, Integrin alpha-IIb/beta-3 (Homo sapiens, UniProt P05106+P08514); experiment: Displacement of [125I]echistatin from alphaIIb-beta3 integrin of human platelets
Integrin alpha-V/beta-3 [3] = molecular target: T1, Integrin alpha-V/beta-3; experiment: Displacement of [125I]-echistatin from alphaV-beta3 integrin of human skin fibroblasts at 1 mM (Inactive); type: protein-complex assay
[4] = molecular target: T2, Integrin alpha-IIb/beta-3; experiment: Displacement of [125I]echistatin from alphaIIb-beta3 integrin of human platelets at 1 mM (Inactive)

T2 sequence (P05106 27-788 limits assumed): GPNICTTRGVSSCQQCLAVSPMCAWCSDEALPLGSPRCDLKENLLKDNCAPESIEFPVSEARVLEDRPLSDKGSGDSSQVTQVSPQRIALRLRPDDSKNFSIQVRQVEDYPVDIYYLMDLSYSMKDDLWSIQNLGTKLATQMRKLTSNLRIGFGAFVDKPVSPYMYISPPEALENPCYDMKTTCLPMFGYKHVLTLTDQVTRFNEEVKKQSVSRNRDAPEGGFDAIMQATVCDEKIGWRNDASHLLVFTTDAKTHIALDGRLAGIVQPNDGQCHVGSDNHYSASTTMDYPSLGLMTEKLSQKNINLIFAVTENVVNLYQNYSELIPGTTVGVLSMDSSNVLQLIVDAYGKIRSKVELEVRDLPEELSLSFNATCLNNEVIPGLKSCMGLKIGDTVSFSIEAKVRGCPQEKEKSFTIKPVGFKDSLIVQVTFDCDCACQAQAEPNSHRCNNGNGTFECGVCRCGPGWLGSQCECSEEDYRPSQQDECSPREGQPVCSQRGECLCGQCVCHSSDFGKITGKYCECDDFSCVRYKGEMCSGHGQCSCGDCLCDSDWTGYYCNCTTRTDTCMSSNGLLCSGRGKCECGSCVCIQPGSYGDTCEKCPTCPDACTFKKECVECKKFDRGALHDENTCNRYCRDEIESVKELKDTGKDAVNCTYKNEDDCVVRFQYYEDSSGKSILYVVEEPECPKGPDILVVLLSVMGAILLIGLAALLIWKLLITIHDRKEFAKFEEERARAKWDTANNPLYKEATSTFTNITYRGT
T2 sequence (P08514 32-887 limits assumed): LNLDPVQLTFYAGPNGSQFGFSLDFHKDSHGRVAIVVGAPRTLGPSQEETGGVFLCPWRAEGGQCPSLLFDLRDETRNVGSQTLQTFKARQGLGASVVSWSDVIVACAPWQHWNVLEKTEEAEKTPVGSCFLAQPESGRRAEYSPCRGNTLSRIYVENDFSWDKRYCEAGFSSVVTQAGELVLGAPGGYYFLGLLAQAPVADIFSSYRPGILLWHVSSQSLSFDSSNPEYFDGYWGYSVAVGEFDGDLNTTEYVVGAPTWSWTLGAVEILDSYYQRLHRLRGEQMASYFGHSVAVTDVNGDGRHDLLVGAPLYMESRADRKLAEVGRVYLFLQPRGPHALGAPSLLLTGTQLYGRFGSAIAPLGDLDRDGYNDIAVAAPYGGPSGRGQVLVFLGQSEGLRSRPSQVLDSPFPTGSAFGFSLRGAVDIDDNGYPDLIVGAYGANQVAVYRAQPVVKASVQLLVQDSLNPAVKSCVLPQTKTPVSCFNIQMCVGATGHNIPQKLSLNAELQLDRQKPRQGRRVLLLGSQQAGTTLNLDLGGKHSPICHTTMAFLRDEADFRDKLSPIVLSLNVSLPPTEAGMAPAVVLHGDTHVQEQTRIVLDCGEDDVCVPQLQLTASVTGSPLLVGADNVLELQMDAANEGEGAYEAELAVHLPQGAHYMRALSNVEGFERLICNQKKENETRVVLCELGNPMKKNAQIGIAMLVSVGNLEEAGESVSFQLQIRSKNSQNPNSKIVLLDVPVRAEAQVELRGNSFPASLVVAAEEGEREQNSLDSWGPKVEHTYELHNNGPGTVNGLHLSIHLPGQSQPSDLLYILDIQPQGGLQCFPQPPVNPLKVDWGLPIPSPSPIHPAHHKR
T2 sequence (P08514 891-1039 limits assumed): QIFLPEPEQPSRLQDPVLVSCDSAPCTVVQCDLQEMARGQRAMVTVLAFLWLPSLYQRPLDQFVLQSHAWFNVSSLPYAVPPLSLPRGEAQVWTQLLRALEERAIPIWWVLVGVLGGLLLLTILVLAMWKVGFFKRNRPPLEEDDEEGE
T1 sequence (P05106 27-788 limits assumed): as the sequence (P05106 27-788 limits assumed) above
T1 sequence (P06756 31-889 limits assumed): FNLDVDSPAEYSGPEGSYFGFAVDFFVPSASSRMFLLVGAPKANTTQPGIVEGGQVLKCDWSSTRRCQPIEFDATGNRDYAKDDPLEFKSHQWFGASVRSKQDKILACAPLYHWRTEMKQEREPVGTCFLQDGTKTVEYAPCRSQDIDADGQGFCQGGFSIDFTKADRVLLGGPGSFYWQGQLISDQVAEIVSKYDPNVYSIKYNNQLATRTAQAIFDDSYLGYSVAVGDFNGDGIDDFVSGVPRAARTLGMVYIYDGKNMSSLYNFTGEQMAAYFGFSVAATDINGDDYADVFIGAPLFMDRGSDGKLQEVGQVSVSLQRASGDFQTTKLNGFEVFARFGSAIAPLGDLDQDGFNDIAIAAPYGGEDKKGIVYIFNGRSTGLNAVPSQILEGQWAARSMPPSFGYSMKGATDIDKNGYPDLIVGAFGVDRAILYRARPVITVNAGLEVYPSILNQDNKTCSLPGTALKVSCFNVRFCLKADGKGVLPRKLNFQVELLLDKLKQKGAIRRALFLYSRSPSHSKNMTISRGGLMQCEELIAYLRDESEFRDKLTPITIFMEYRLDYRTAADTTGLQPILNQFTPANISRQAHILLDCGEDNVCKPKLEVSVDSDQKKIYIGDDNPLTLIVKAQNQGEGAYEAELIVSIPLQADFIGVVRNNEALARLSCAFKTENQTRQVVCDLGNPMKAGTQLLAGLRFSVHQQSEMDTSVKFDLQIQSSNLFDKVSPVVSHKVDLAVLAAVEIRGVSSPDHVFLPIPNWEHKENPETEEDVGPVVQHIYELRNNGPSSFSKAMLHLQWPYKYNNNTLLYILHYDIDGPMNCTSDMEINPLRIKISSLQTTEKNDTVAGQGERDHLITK
T1 sequence (P06756 891-1048 limits assumed): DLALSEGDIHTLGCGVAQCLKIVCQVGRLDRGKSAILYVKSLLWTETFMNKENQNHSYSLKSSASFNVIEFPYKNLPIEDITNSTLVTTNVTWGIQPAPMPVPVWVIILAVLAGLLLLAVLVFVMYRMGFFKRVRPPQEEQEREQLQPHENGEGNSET

| IC50 (Integrin alpha-V/beta-3 [1]) [µM] | IC50 [2] [µM] | IC50 (Integrin alpha-V/beta-3 [3]) | IC50 [4] | SMILES |
| --- | --- | --- | --- | --- |
| 597 | 198 | – | – | N=C(N)NCCCC1NC(=O)C[C@@H]2O[C@H](CNC(=O)C[C@@H]3O[C@H](CNC(=O)C(CC(=O)O)NC(=O)CNC1=O)[C@@H](O)[C@H]3O)[C@@H](O)[C@H]2O (stereo not given in full) |
| 1.49 | 0.384 | – | – | N=C(N)NCCC[C@@H]1NC(=O)C[C@@H]2O[C@H](CNC(=O)[C@H](CC(=O)O)NC(=O)CNC1=O)[C@@H](O)[C@H]2O |
| – | – | Not Active | Not Active | N=C(N)NCCCC1NC(=O)C[C@@H]2O[C@H](CNC(=O)C(CC(=O)O)NC(=O)C[C@@H]3O[C@H](CNC1=O)[C@@H](O)[C@H]3O)[C@@H](O)[C@H]2O (stereo not given in full) |
| – | – | Not Active | Not Active | CC(C)[C@@H]1NC(=O)CNC(=O)C[C@@H]2O[C@H](CNC(=O)[C@H](CCCN=C(N)N)NC(=O)[C@H](CC(=O)O)NC1=O)[C@@H](O)[C@H]2O (cyclo(DR[X1]GV)) |
| 98.1 | 32.2 | – | – | CC(C)[C@@H]1NC(=O)[C@H](CC(=O)O)NC(=O)CNC(=O)[C@H](CCCN=C(N)N)NC(=O)C[C@@H]2O[C@H](CNC1=O)[C@@H](O)[C@H]2O (cyclo(RGDV[X1])) |

— ChEMBL document CHEMBL1136506, “Solid-phase synthesis of cyclic RGD-furanoid sugar amino acid peptides as integrin inhibitors” (Bioorg Med Chem Lett, 2003)
